Consider one compound from patent US8062662B2, “Liposomes containing an entrapped compound in supersaturated solution” (Alza Corporation, priority 2000, dated 2011).

This data set is described as follows: [1H,15N] HSQC NMR / HPLC: reactivity of cisplatin with histidine and leakage from liposomes. Format: physicochemical. Particulars: 24-hour incubation, 1:1 mole ratio with N-acetyl histidine. The source says:
Inverse detection experiments detect the protons that are coupled to ^15N and thus provide information about the chemical shifts and coupling constants of the ^15N which depend on the ligands in the first coordination sphere of the Pt and on its oxidation state. […] HSQC and HMQC are two-dimensional inverse detection experiments that have the proton chemical shifts on one axis and the ^15N chemical shifts on the second axis. HSQC and HMQC of ^15N-labeled Pt complexes have been used successfully, to detect micromolar concentrations of Pt complexes. In the studies performed in support of the invention, HSQC was used, since it gives narrower lines and better resolution than HMQC. […] In addition to the tremendous gain in sensitivity, HSQC selectively detects only the protons that are coupled to the ^15N, thus ignoring all the other protons in the solution (from the liposomes) and simplifying the interpretation of the data.
These associations are irreversible, thus making the drug unavailable, once bound.
A similar study was carried out with N-BOC-methionine.
Lipids (HSPC/cholesterol/^2000PEG-DSPE 51:44:5) were dissolved in ethanol. […] Aliquots of the liposomes and of both precipitates were analyzed by heteronuclear single quantum coherence (HSQC) at 30° C. […]
All [^1H, ^15N] […] The 2D data were recorded using Bruker sequence of […] […]

Each structure is given as a SMILES string.

Turning to `N.N.[Cl][Pt][Cl]` [^15N-cisplatin, cis-^15N-diamminedichloroplatinum(II)], the “cisplatin-histidine species, share of the platinum detected (HPLC)” value is 20-30%.
